Values belong to the compound of their own block, whether it stands above or below them. *1 amine or outer side, *2 acyl side, *3 side chain or, on linkers, in order; H or OH if unused. Where a SMILES comes first, the peptide text is derived from it. Side-chain parts run from the residue outwards. The star is where a group is joined. C18 diacid = O=C(O)CCCCCCCCCCCCCCCCC(=O)*; γGlu = O=C(O)[C@H](CCC(=O)[*:2])N[*:1]; Isovaleryl = CC(C)CC(=O)*; Ahx = NCCCCCC(=O)O
Tests used:
[1] = Solubility determination; conditions: for Sol6: pH 6; for Sol7: pH 7
Method in brief: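 Shake-flask style: 10 mg/ml peptide (TFA salt), 0.1 M sodium diphosphate pH 6.4/7.0, 600 rpm, 2 h, RT; filter; dilute 1 mg/ml in 50% MeCN; RP-UPLC, 0–100% B over 2 min, 50 °C. Solubility = sample/control area ratio. Final pH recorded.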

[2] = biological target: T1, Human Neuropeptide Y2 Receptor (Homo sapiens, UniProt P49146); assay: Radioligand binding competition assay (RLB); conditions: Table 3, 125I-PYY(1-36) competition; read-out: Ki
T1 construct: purchased CHEMICON HTS066M
T1 sequence (P49146 1-381): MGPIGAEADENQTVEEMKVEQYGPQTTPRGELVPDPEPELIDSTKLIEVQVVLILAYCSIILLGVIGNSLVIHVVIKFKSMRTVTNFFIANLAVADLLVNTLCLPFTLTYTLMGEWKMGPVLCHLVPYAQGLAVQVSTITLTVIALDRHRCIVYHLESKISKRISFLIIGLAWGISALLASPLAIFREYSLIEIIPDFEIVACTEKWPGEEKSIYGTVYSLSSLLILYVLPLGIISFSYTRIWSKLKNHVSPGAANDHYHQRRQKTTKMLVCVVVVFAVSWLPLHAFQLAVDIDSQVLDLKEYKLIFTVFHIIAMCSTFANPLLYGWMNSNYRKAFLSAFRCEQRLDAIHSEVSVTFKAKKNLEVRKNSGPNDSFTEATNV
Method in brief: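 Competition binding used membranes expressing the receptor (0.5 μg protein/well) in 50 mM HEPES, 5 mM MgCl2, 1 mM CaCl2, pH 7.4 with 0.2% ovalbumin, incubated 2 h at room temperature with shaking. Bound radioligand was collected by filtration onto PEI-soaked GF/C filters and counted; IC50 from nonlinear sigmoidal fits.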

Compound: CC[C@H](C)[C@H](NC(=O)[C@H](Cc1ccc(O)cc1)NC(=O)[C@H](Cc1ccc(O)cc1)NC(=O)[C@H](CCCNC(=N)N)NC(=O)[C@H](CCC(N)=O)NC(=O)[C@H](CC(C)C)NC(=O)[C@H](CCC(=O)O)NC(=O)[C@H](CCC(=O)O)NC(=O)[C@@H]1CCCN1C(=O)[C@@H](NC(=O)[C@H](C)NC(=O)[C@H](CC(=O)O)NC(=O)[C@H](CCC(=O)O)NC(=O)[C@H](CCC(=O)O)NC(=O)[C@@H]1CCCN1C(=O)[C@H](CCCCNC(=O)CCCCCNC(=O)CC[C@H](NC(=O)CCCCCCCCCCCCCCCCC(=O)O)C(=O)O)NC(=O)[C@H](CCC(=O)O)NC(=O)[C@@H]1CCCN1C(=O)[C@H](C)NC(=O)CC(C)C)[C@@H](C)O)C(=O)N[C@@H](CO)C(=O)N[C@@H](CC(C)C)C(=O)N[C@@H](CCCNC(=N)N)C(=O)N[C@@H](Cc1c[nH]cn1)C(=O)N[C@@H](Cc1ccc(O)cc1)C(=O)N[C@@H](Cc1ccc(O)cc1)C(=O)N[C@@H](CC(N)=O)C(=O)N[C@@H](Cc1c[nH]c2ccccc12)C(=O)N[C@@H](CC(C)C)C(=O)N[C@H](C(=O)N[C@@H](CCCNC(=N)N)C(=O)N[C@@H](CCC(N)=O)C(=O)N[C@@H](CCCNC(=N)N)C(=O)N[C@@H](Cc1ccc(O)cc1)C(N)=O)[C@@H](C)O [Compound 66, N{alpha-4}-(3-methylbutanoyl)-N{epsilon-7}-(6-[(4S)-4-carboxy-4-(17-carboxyheptadecanamido)butanamido]hexanoyl)-[4A,7K,9E,13T,18Q,22I,28Y,30W,31L]-hPYY(4-36)]
- Sol6 [1]: 9.2 mg/mL
- Sol7 [1]: 9.2 mg/mL
- Ki [2]: 2.33 nM

Compound: CC(C)CC(=O)N[C@@H](C)C(=O)N1CCC[C@H]1C(=O)N[C@@H](CCC(=O)O)C(=O)N[C@@H](CCCCNC(=O)CCCCCNC(=O)CC[C@H](NC(=O)CCCCCCCCCCCCCCCCC(=O)O)C(=O)O)C(=O)N1CCC[C@H]1C(=O)N[C@@H](CCC(=O)O)C(=O)N[C@@H](CCC(=O)O)C(=O)N[C@@H](CC(=O)O)C(=O)N[C@@H](C)C(=O)N[C@@H](CCC(=O)O)C(=O)N1CCC[C@H]1C(=O)N[C@@H](CCC(=O)O)C(=O)N[C@@H](CCC(=O)O)C(=O)N[C@@H](CC(C)C)C(=O)N[C@@H](CCC(N)=O)C(=O)N[C@@H](CCCNC(=N)N)C(=O)N[C@@H](Cc1ccc(O)cc1)C(=O)N[C@@H](Cc1ccc(O)cc1)C(=O)N[C@H](C(=O)N[C@@H](CO)C(=O)N[C@@H](CC(C)C)C(=O)N[C@@H](CCCNC(=N)N)C(=O)N[C@@H](Cc1c[nH]cn1)C(=O)N[C@@H](Cc1ccc(O)cc1)C(=O)N[C@@H](Cc1ccc(O)cc1)C(=O)N[C@@H](CCC(N)=O)C(=O)N[C@@H](Cc1c[nH]c2ccccc12)C(=O)N[C@@H](CC(C)C)C(=O)N[C@H](C(=O)N[C@@H](CCCNC(=N)N)C(=O)N[C@@H](CCC(N)=O)C(=O)N[C@@H](CCCNC(=N)N)C(=O)N[C@@H](Cc1ccc(O)cc1)C(N)=O)[C@@H](C)O)C(C)C [Compound 68, N{alpha-4}-(3-methylbutanoyl)-N{epsilon-7}-(6-[(4S)-4-carboxy-4-(17-carboxyheptadecanamido)butanamido]hexanoyl)-[4A,7K,9E,13E,18Q,22V,28Y,29Q,30W,31L]-hPYY(4-36)]
- Sol6 [1]: 9.9 mg/mL
- Sol7 [1]: 10.0 mg/mL
- Ki [2]: 9.07 nM

Compound: CC(C)CC(=O)N[C@@H](C)C(=O)N1CCC[C@H]1C(=O)N[C@@H](CCC(=O)O)C(=O)N[C@@H](CCCCNC(=O)CCCCCNC(=O)CC[C@H](NC(=O)CCCCCCCCCCCCCCCCC(=O)O)C(=O)O)C(=O)N1CCC[C@H]1C(=O)N1CCC[C@H]1C(=O)N[C@@H](C)C(=O)N[C@@H](CC(=O)O)C(=O)N[C@@H](C)C(=O)N[C@@H](CO)C(=O)N1CCC[C@H]1C(=O)N[C@@H](CCC(=O)O)C(=O)N[C@@H](CCC(=O)O)C(=O)N[C@H](C(=O)N[C@@H](CCC(N)=O)C(=O)N[C@@H](CCCNC(=N)N)C(=O)N[C@@H](Cc1ccc(O)cc1)C(=O)N[C@@H](Cc1ccc(O)cc1)C(=O)N[C@H](C(=O)N[C@@H](CO)C(=O)N[C@@H](CC(C)C)C(=O)N[C@@H](CCCNC(=N)N)C(=O)N[C@@H](Cc1c[nH]cn1)C(=O)N[C@@H](Cc1ccc(O)cc1)C(=O)N[C@@H](Cc1ccc(O)cc1)C(=O)N[C@@H](CC(N)=O)C(=O)N[C@@H](Cc1c[nH]c2ccccc12)C(=O)N[C@@H](CC(C)C)C(=O)N[C@H](C(=O)N[C@@H](CCCNC(=N)N)C(=O)N[C@@H](CCC(N)=O)C(=O)N[C@@H](CCCNC(=N)N)C(=O)N[C@@H](Cc1ccc(O)cc1)C(N)=O)[C@@H](C)O)C(C)C)[C@@H](C)O [Compound 69, N{alpha-4}-(3-methylbutanoyl)-N{epsilon-7}-(6-[(4S)-4-carboxy-4-(17-carboxyheptadecanamido)butanamido]hexanoyl)-[4A,7K,9P,10A,17T,18Q,22V,28Y,30W,31L]-hPYY(4-36)] (Isovaleryl-APEK([Ahx-γGlu-C18 diacid])PPADASPEETQRYYVSLRHYYNWLTRQRY-NH2)
- Sol6 [1]: 0.1 mg/mL
- Sol7 [1]: 9.5 mg/mL
- Ki [2]: 0.54 nM

Compound: CC(C)CC(=O)N[C@@H](C)C(=O)N1CCC[C@H]1C(=O)N[C@@H](CCC(=O)O)C(=O)N[C@@H](CCCCNC(=O)CCCCCNC(=O)CC[C@H](NC(=O)CCCCCCCCCCCCCCCCC(=O)O)C(=O)O)C(=O)N1CCC[C@H]1C(=O)N[C@@H](CCC(=O)O)C(=O)N[C@@H](CCC(=O)O)C(=O)N[C@@H](C)C(=O)N[C@@H](C)C(=O)N[C@@H](CO)C(=O)N1CCC[C@H]1C(=O)N[C@@H](CCC(=O)O)C(=O)N[C@@H](CCC(=O)O)C(=O)N[C@@H](CC(C)C)C(=O)N[C@@H](CCC(N)=O)C(=O)N[C@@H](CCCNC(=N)N)C(=O)N[C@@H](Cc1ccc(O)cc1)C(=O)N[C@@H](Cc1ccc(O)cc1)C(=O)N[C@H](C(=O)N[C@@H](C)C(=O)N[C@@H](CC(C)C)C(=O)N[C@@H](CCCNC(=N)N)C(=O)N[C@@H](Cc1c[nH]cn1)C(=O)N[C@@H](Cc1ccc(O)cc1)C(=O)N[C@@H](Cc1ccc(O)cc1)C(=O)N[C@@H](CC(N)=O)C(=O)N[C@@H](Cc1c[nH]c2ccccc12)C(=O)N[C@@H](CC(C)C)C(=O)N[C@H](C(=O)N[C@@H](CCCNC(=N)N)C(=O)N[C@@H](CCC(N)=O)C(=O)N[C@@H](CCCNC(=N)N)C(=O)N[C@@H](Cc1ccc(O)cc1)C(N)=O)[C@@H](C)O)C(C)C [Compound 73, N{alpha-4}-(3-methylbutanoyl)-N{epsilon-7}-(6-[(4S)-4-carboxy-4-(17-carboxyheptadecanamido)butanamido]hexanoyl)-[4A,7K,9E,11A,18Q,22V,23A,28Y,30W,31L]-hPYY(4-36)]
- Sol6 [1]: 8.6 mg/mL
- Sol7 [1]: 8.2 mg/mL
- Ki [2]: 2.16 nM

The remaining lines, values ahead:

- Sol6 [1]: 0.1 mg/mL
- Sol7 [1]: 8.9 mg/mL
- Ki [2]: 0.41 nM
Compound: CC[C@H](C)[C@H](NC(=O)[C@H](CCC(=O)O)NC(=O)[C@H](CCC(=O)O)NC(=O)[C@@H]1CCCN1C(=O)[C@H](CO)NC(=O)[C@H](C)NC(=O)[C@H](CC(=O)O)NC(=O)[C@H](C)NC(=O)[C@@H]1CCCN1C(=O)[C@@H]1CCCN1C(=O)[C@H](CCCCNC(=O)CCCCCNC(=O)CC[C@H](NC(=O)CCCCCCCCCCCCCCCCC(=O)O)C(=O)O)NC(=O)[C@H](CCC(=O)O)NC(=O)[C@@H]1CCCN1C(=O)[C@H](C)NC(=O)CC(C)C)C(=O)N[C@@H](CCC(N)=O)C(=O)N[C@@H](CCCNC(=N)N)C(=O)N[C@@H](Cc1ccc(O)cc1)C(=O)N[C@@H](Cc1ccc(O)cc1)C(=O)N[C@H](C(=O)N[C@@H](CO)C(=O)N[C@@H](CC(C)C)C(=O)N[C@@H](CCCNC(=N)N)C(=O)N[C@@H](Cc1c[nH]cn1)C(=O)N[C@@H](Cc1ccc(O)cc1)C(=O)N[C@@H](Cc1ccc(O)cc1)C(=O)N[C@@H](CC(N)=O)C(=O)N[C@@H](Cc1c[nH]c2ccccc12)C(=O)N[C@@H](CC(C)C)C(=O)N[C@H](C(=O)N[C@@H](CCCNC(=N)N)C(=O)N[C@@H](CCC(N)=O)C(=O)N[C@@H](CCCNC(=N)N)C(=O)N[C@@H](Cc1ccc(O)cc1)C(N)=O)[C@@H](C)O)C(C)C [Compound 61, N{alpha-4}-(3-methylbutanoyl)-N{epsilon-7}-(6-[(4S)-4-carboxy-4-(17-carboxyheptadecanamido)butanamido]hexanoyl)-[4A,7K,9P,10A,17I,18Q,22V,28Y,30W,31L]-hPYY(4-36)]

- Sol6 [1]: 8.8 mg/mL
- Sol7 [1]: 9.3 mg/mL
- Ki [2]: 1.44 nM
Compound: CC(C)CC(=O)N[C@@H](C)C(=O)N1CCC[C@H]1C(=O)N[C@@H](C)C(=O)N[C@@H](CCCCNC(=O)CCCCCNC(=O)CC[C@H](NC(=O)CCCCCCCCCCCCCCCCC(=O)O)C(=O)O)C(=O)N1CCC[C@H]1C(=O)N1CCC[C@H]1C(=O)N[C@@H](CCC(=O)O)C(=O)N[C@@H](CC(=O)O)C(=O)N[C@@H](C)C(=O)N[C@@H](CO)C(=O)N1CCC[C@H]1C(=O)N[C@@H](CCC(=O)O)C(=O)N[C@@H](CCC(=O)O)C(=O)N[C@@H](CC(C)C)C(=O)N[C@@H](CCC(N)=O)C(=O)N[C@@H](CCCNC(=N)N)C(=O)N[C@@H](Cc1ccc(O)cc1)C(=O)N[C@@H](Cc1ccc(O)cc1)C(=O)N[C@H](C(=O)N[C@@H](CCC(=O)O)C(=O)N[C@@H](CC(C)C)C(=O)N[C@@H](CCCNC(=N)N)C(=O)N[C@@H](Cc1c[nH]cn1)C(=O)N[C@@H](Cc1ccc(O)cc1)C(=O)N[C@@H](Cc1ccc(O)cc1)C(=O)N[C@@H](CC(N)=O)C(=O)N[C@@H](Cc1c[nH]c2ccccc12)C(=O)N[C@@H](CC(C)C)C(=O)N[C@H](C(=O)N[C@@H](CCCNC(=N)N)C(=O)N[C@@H](CCC(N)=O)C(=O)N[C@@H](CCCNC(=N)N)C(=O)N[C@@H](Cc1ccc(O)cc1)C(N)=O)[C@@H](C)O)C(C)C [Compound 62, N{alpha-4}-(3-methylbutanoyl)-N{epsilon-7}-(6-[(4S)-4-carboxy-4-(17-carboxyheptadecanamido)butanamido]hexanoyl)-[4A,6A,7K,9P,18Q,22V,23E,28Y,30W,31L]-hPYY(4-36)]

Source: patent US12391737B2, “Soluble NPY2 receptor agonists” (Boehringer Ingelheim International GmbH, priority 2020, dated 2025)
